Test results reported in patent publication US8993717B2, “Gadd45beta targeting agents” (Imperial Innovations Limited, priority 2009, dated 2015).
pIC50: −log10 of the molar value. Values joined by “and” are separate entries in the source; they are usually repeats but may differ in a detail not shown here. Identical values can stand only once. Like-named read-outs stand apart in the source and are kept apart here. Square brackets hold non-standard residues; d marks the D form. Peptide text beside a SMILES is read from it. * marks the point of attachment. Cbz = O=C(OCc1ccccc1)*

Tests used:
[1] = tested on: U266, KMS-11, NCI-H929, ARH-77, JJN-3, KMS-12, KMS-18, KMS-27 cells; assay: [3H]thymidine incorporation assay, panel of 8 sensitive multiple myeloma cell lines; format: cell-based, human; conditions: treatment for 144 hrs; read-out: IC50s ranging over the sensitive multiple myeloma cell lines
Procedure: Cultures of multiple myeloma cells and treatments with Z-DTPs were carried out as described in Example 8 (see below). The effects of Z-DTPs on the survival/proliferation of multiple myeloma cells were evaluated by the use of [^3H]thymidine) incorporation assays, performed as also described in Example 8. The amount of cell proliferation measured with each of the Z-DTPs' concentrations used and with the untreated cultures (i.e. cultures incubated with medium alone), was expressed as counts per minute (c.p.m.)—which directly correlate with the extent of cell proliferation. All experiments were performed in triplicate.

[2] = tested on: IKK/NF-κB, ERK and p38 pathways; assay: Activation of IKK/NF-κB, ERK and p38 pathways in multiple myeloma cells; format: cell-based, human; conditions: data not shown
Solubility = format: physicochemical; conditions: result in words
[3] = Mouse pharmacokinetics study, single i.v. injection; format: in vivo, male CD1 mice; conditions: for Last Time point: in h (unit assumed); for kel: 0.693/t1/2, table note; for half-life / clearance / Vd: male, CD1, mouse; for C0 / MRT inf / AUC: mouse; for AUC: read-out: AUC to Last; for acute toxicity in mice: single i.v. dose 10 mg/kg
Procedure: Z-DTP2 and Z-mDTP3 were administered intravenously to mice. Blood samples were collected at up to 7 time points after intravenous (i.v.) injection of the compounds over 8 hrs, and plasma was analysed by LC-MS/MS to determine the concentration of the compounds at each time point.
Three male CD1 mice, 25-30 grams each, were dosed per administration route per time-point, per compound. The test compound was administered intravenously (at a typical dose level of 10 mg of compound per kg of body weight). Animals were given free access to food throughout the study.
Blood samples were centrifuged to obtain the plasma, which was then transferred to a separate labelled container. Aliquots from the individual time points for the three animals were analysed singly. Proteins were precipitated by adding three volumes of methanol and centrifuging for 30 min at 4° C. Aliquots of 100 μl of the resulting supernatants were diluted with 200 μl of HPLC grade water in wells of a 96-well plate.
Standard curves were prepared in blank plasma matrices and treated in an identical manner to the samples. The plasma samples were quantified by LC-MS/MS, and the concentration of each compound in the plasma were reported in μg/mL.
Pharmacokinetic parameters were calculated employing non-compartmental model analysis, as described in the web site http://www.pharsight.com/main.php
The test compound concentration in plasma samples was measured by LC-MS/MS. The data were quantified using a five-point standard curve over a range of 3-3000 ng/mL.
Proteins were precipitated from 50 μL aliquots of the individual plasma samples by adding 150 μL methanol. Following protein precipitation, plasma samples were centrifuged for 30 min at 4° C. Aliquots of 100 μL of the resulting supernatant were diluted with 200 μL of HPLC grade water in a 96 well plate. The test compound was then quantified by LC-MS/MS from a five-point standard curve prepared by spiking plasma with varying concentrations of test compound dissolved in DMSO over a final concentration range of 3-3000 ng/mL (final DMSO concentration 1%) and treated in an identical manner to the test samples as described above.

[4] = molecular target: T1, kinase domain of MKK7 (MKK7KD) (Homo sapiens, UniProt O14733, S271D/T275D); assay: Surface Plasmon Resonance, immobilized MKK7KD; format: binding; conditions: 1 nM to 10 μM
T1 construct: His6; made in house; host or cells: E. coli
T1 sequence (O14733 101-405 isoform O14733-3 S287D/T291D): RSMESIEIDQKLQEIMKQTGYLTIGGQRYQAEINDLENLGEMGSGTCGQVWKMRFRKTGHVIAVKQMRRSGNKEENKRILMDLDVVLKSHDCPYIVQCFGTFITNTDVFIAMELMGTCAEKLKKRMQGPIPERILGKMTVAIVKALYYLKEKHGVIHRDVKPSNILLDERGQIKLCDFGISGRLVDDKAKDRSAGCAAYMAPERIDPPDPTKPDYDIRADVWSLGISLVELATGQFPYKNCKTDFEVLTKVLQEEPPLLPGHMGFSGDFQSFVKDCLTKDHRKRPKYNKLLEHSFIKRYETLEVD
Procedure: To determine how DTPs bind to the Gadd45 β/MKK7 complex, experiments were performed with a Biacore3000 SPR instrument (GE Healthcare, Milan, Italy), using 4-channels CM5 sensorchips (GE Healthcare, Milan, Italy). Full length human Gadd45β was prepared and purified as described in the reference by Tornatore L., et al. (2008). J Mol Biol; 378:97-111. […] The protein was purified to homogeneity by two subsequent steps of affinity chromatography (Ni-NTA support) and gel filtration (Superdex G75), and then characterized by SDS-PAGE, LC-MS to verify identity and purity, and by Circular Dichroism to assess folding.
MKK7KD was immobilized on the Biacore sensorchip via classical EDC/NHS coupling chemistry at pH 5 (protein pI, ˜9) at a flow rate of 5 uL/min An immobilization level of about 8000 Response Units was achieved. Gadd45β, which is an intrinsically acidic protein with a pI of about 4.5, was immobilized at pH 3.5 (6000 RU immobilization levels) on a separate channel. The residual reactive groups on both the Gadd45β and MKK7KD channels were finally inactivated by treatment with ethanolamine. On another channel the same procedure of activation with EDC/NHS and inactivation with ethanolamine was performed. […]

CaCO2 = CaCO2 assays; format: in vitro ADME; conditions: data not shown
[5] = plasma, iv, 10 mg/kg, 10 mg/kg i.v., male CD1 mice, read-out: Total CL (converted)
[6] = plasma, iv, 10 mg/kg, 10 mg/kg i.v., male CD1 mice, read-out: Vss
[7] = plasma, iv, 10 mg/kg, 10 mg/kg i.v., male CD1 mice, read-out: Vβ
[8] = plasma, iv, 10 mg/kg i.v., male CD1 mice

SMILES	effects on the IKK/NF-κB, ERK and p38 pathways [2]	Last Time point ([3]; 10 mg/kg i.v., male CD1 mice)	kel [3]	half-life ([3]; in vivo, iv, 10 mg/kg, T1/2) [h]	clearance [3, 5]	Vd [3, 6] [L]	Vd [3, 7] [L]	C0 [3, 8] [ng/mL]	MRT inf [3, 8] [h]	AUC [3, 8] [ng·h/mL]	acute toxicity in mice [3]	further results
NC(=O)[C@@H](Cc1ccccc1)NC(=O)[C@@H](Cc1c[nH]cn1)NC(=O)[C@@H](CC(=O)O)NC(=O)[C@@H](Cc1ccc(O)cc1)NC(=O)OCc1ccccc1 [Compound 1, Z-Tyr-Asp-His-Phe-NH2] (Cbz-[dY][dD][dH][dF]-NH2)	no effects were observed	–	–	–	–	–	–	–	–	–	–	pIC50 [1]: 5.31 to 8.00
N=C(N)NCCC[C@@H](NC(=O)[C@@H](CCC(=O)O)NC(=O)[C@@H](Cc1ccc(O)cc1)NC(=O)OCc1ccccc1)C(=O)N[C@H](Cc1ccccc1)C(N)=O [Compound 9, Z-D-Tyr-D-Glu-D-Arg-D-Phe-NH2] (Cbz-[dY][dE][dR][dF]-NH2)	–	8.0	kel/t1/2 = 0.693/2.08 = 0.3323 hr^−1	2.08	2.18 mL/min and 78.1 mL/min/kg	0.126	0.394	8740	0.973	2080	absence of acute toxicity	solubility (Solubility): high solubility; half-life ([3]; plasma, intravenous, text b344, read-out: half-lives in vivo (converted)): ~2 h; half-life ([3]; plasma, iv, mice, read-out: initial distributive half-life): ~0.0833 h; half-life ([3]; plasma, iv, mice, read-out: terminal half-life (converted)): ~8 h; clearance ([3]; plasma, iv, mice, read-out: values of total clearance in the range): 66 to 90 mL/min/kg
CC(=O)N[C@H](Cc1ccc(O)cc1)C(=O)N[C@H](CCCNC(=N)N)C(=O)N[C@H](Cc1ccccc1)C(N)=O [Compound 17, Ac-D-Tyr-D-Arg-D-Phe-NH2] (Ac-[dY]-[dR]-[dF]-NH2)	no effects were observed	6.667	kel/t1/2 = 0.693/2.08 = 0.3323 hr^−1	1.26	0.736 mL/min and 27.1 mL/min/kg	0.0126	0.0756	29100	0.281	6430	absence of acute toxicity	binding to MKK7KD in isolation [4]: does not bind; total clearance, times lower than that of Z-DTP2 ([3]; i.v., mice): 3 times; half-life ([3]; plasma, iv, 10 mg/kg, i.v., mice, read-out: initial distributive half-life): ~0.0833 h; half-life ([3]; plasma, iv, 10 mg/kg, i.v., mice, read-out: terminal half-life (converted)): ~8 h; clearance ([3]; plasma, iv, 10 mg/kg, i.v., mice, read-out: values of total clearance in the range): 22 to 27 mL/min/kg
CC(=O)N[C@H](Cc1ccc(O)cc1)C(=O)N[C@H](CCC(=O)O)C(=O)N[C@H](CCCNC(=N)N)C(=O)N[C@H](Cc1ccccc1)C(N)=O [DTP2, Acetyl-(D-Tyr)-(D-Glu)-(D-Arg)-(D-Phe)-NH2] (Ac-[dY][dE][dR][dF]-NH2)	–	–	–	–	–	–	–	–	–	–	–	cellular permeability (CaCO2): low cellular permeability
